# Reference: ChEMBL document CHEMBL4476874, “Compounds for the modulation of myc activity” (2018)
# pIC50: −log10 of the molar value.
# System: NCI-H2171
# Experiment: Antiproliferative activity against human NCI-H2171 cells after 72 hrs by ATPlite assay
# Format: functional, cell-based
# Details: NCI-H2171, 72 h
row,SMILES,pIC50
1,CCOc1ccc(-c2ccc3sc(-c4c(NC(=O)CCNCCOC)sc5c4CCNC5)nc3c2)cn1,> 6.52
2,CNCCC(=O)Nc1sc2c(c1-c1nc3ccccc3s1)CCN(C(C)C)C2,> 6.52
3,CC(C)NCCC(=O)Nc1sc2c(c1-c1nc3ccc(-c4cnn(C)c4)cc3s1)CCNC2,> 6.52
4,CC(C)NCCC(=O)Nc1sc2c(c1-c1nc3cc(-c4cn[nH]c4)ccc3s1)CCNC2,> 6.52
5,CC(C)N1CCc2c(sc(NC(=O)CCNCCc3cccnc3)c2-c2nc3ccccc3s2)C1,6.00 to 6.52
6,COc1ccc2sc(-c3c(NC(=O)CCNC(C)C)sc4c3CCNC4)nc2c1Cl,6.00 to 6.52
7,CC(C)NCCC(=O)Nc1sc2c(c1-c1nc3ccccc3s1)CC1CCC2N1 (configuration not stated),> 6.52
8,CC(C)NCCC(=O)N(C)c1sc2c(c1-c1nc3cc(-c4cnn(C)c4)ccc3s1)CCNC2,5.00 to 6.00
9,CC(C)NCCC(=O)Nc1sc2c(c1-c1nc3cc(C4CCCCC4)ccc3s1)CCNC2,6.00 to 6.52
10,Cc1cc(-c2ccc3sc(-c4c(NC(=O)CCNC(C)C)sc5c4CCNC5)nc3c2)n(C)n1,6.00 to 6.52
11,CC(C)N1CCc2c(sc(NC(=O)CCN(C)C)c2-c2nc3ccccc3s2)C1,> 6.52
12,COCCNCCC(=O)Nc1sc2c(c1-c1nc3ccc(-c4cncc(F)c4)cc3s1)CCNC2,> 6.52
13,CC(=O)Nc1sc2c(c1-c1nc3ccccc3s1)C[C@@H](C)N[C@H]2C (relative stereo),5.00 to 6.52
14,"CC[C@H](C)NCCC(=O)Nc1sc2c(c1-c1nc3ccccc3s1)CC(C)NC2C (single isomer, unassigned; 620)",5.00 to 6.00
15,"CC[C@H](C)NCCC(=O)Nc1sc2c(c1-c1nc3ccccc3s1)CC(C)NC2C (single isomer, unassigned; 621)",5.00 to 6.00
16,"CC[C@H](C)NCCC(=O)Nc1sc2c(c1-c1nc3ccccc3s1)CC(C)NC2C (single isomer, unassigned; 624)",> 6.52

# Second part, the compound after the results:
row,pIC50,SMILES
1,6.00 to 6.52,Cc1noc(C)c1-c1ccc2sc(-c3c(NC(=O)CCNC(C)C)sc4c3CCNC4)nc2c1
2,> 6.52,CC(C)NCCC(=O)Nc1sc2c(c1-c1nc3cc(-c4cccnc4)ccc3s1)CCNC2
3,> 6.52,COCCNCCC(=O)Nc1sc2c(c1-c1nc3ccccc3s1)C[C@@H](C)NC2
4,5.00 to 6.00,CCC(C)N(CCC(=O)Nc1sc2c(c1-c1nc3ccccc3s1)CCNC2)C(C)=O (configuration not stated)
5,6.00 to 6.52,CC(C)N1CCc2c(sc(NC(=O)CCN3CCN(C)CC3)c2-c2nc3ccccc3s2)C1
6,5.00 to 6.00,Cc1nn(C)cc1-c1ccc2sc(-c3c(NC(=O)CCNC(C)C)sc4c3CCNC4)nc2c1
7,5.00 to 6.00,CCN(CC)CCNCCC(=O)Nc1sc2c(c1-c1nc3ccccc3s1)CCN(C(C)C)C2
8,6.00 to 6.52,CC(C)NCCC(=O)Nc1sc2c(c1-c1nc3cc(-c4ccc(O)cc4)ccc3s1)CCNC2
9,> 6.52,CC(C)NCCC(=O)Nc1sc2c(c1-c1nc3ccccc3o1)CCNC2
10,6.00 to 6.52,CC(=O)Nc1sc2c(c1-c1nc3ccc(-c4ccncc4)cc3s1)CCNC2
11,> 6.52,NCCC(=O)Nc1sc2c(c1-c1nc3ccccc3s1)CCNC2
12,> 6.52,CC(C)N1CCc2c(sc(NC(=O)CCN3CCOCC3)c2-c2nc3ccccc3s2)C1
13,> 6.52,CC(C)NCCC(=O)Nc1sc2c(c1-c1nc3cc(N4CCS(=O)(=O)CC4)ccc3s1)CCNC2
14,> 6.52,Cc1cn(-c2ccc3sc(-c4c(NC(=O)CCNC(C)C)sc5c4CCNC5)nc3c2)cn1
15,6.00 to 6.52,CC(C)NCCC(=O)Nc1sc2c(c1-c1nc3cc(C4=CCN(S(C)(=O)=O)CC4)ccc3s1)CCNC2
16,5.00 to 6.00,CC(C)N1CCc2c(sc(NC(=O)CCNCc3ccccc3)c2-c2nc3ccccc3s2)C1
17,> 6.52,COCCNCCC(=O)Nc1sc2c(c1-c1nc3cc(F)ccc3s1)CCN[C@H]2C
18,5.00 to 6.00,COCCNCCC(=O)Nc1sc2c(c1-c1nc3ccccc3s1)CCN(C(C)C)C2

# Biological target: Myc proto-oncogene protein (Homo sapiens, UniProt P01106)
# Sequence (P01106 whole entry): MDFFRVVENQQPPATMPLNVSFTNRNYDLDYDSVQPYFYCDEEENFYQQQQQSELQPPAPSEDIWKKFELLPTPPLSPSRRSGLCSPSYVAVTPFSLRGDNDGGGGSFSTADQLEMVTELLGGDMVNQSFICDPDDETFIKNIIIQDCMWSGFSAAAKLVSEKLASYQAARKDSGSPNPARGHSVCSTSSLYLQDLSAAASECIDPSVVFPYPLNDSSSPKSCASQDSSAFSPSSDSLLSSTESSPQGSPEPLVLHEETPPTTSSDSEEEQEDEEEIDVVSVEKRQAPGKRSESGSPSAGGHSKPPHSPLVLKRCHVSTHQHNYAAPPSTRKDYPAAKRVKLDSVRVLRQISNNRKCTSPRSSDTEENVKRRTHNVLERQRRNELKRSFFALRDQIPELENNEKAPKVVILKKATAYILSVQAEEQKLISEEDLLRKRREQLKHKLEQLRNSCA
# Experiment: Inhibition of human c-Myc assessed as reduction in c-Myc/Max/Ebox DNA complex formation using pre-formed complex of c-Myc and biotinylated DNA containing single Ebox-sequence followed by compound addition and further addition of his6-tagged c-Max and incubated for 2 hrs by AlphaScreen assay
# Details: not given
row,SMILES,pIC50
1,CCOc1ccc(-c2ccc3sc(-c4c(NC(=O)CCNCCOC)sc5c4CCNC5)nc3c2)cn1,6.00 to 6.52
2,CNCCC(=O)Nc1sc2c(c1-c1nc3ccccc3s1)CCN(C(C)C)C2,> 6.52
3,CC(C)NCCC(=O)Nc1sc2c(c1-c1nc3ccc(-c4cnn(C)c4)cc3s1)CCNC2,> 6.52
4,COCCNCCC(=O)Nc1sc2c(c1-c1nc3ccc(-c4cnccc4C)cc3s1)CCNC2,< 5.00
5,COCCNCCC(=O)Nc1sc2c(c1-c1nc3ccc(-c4ccc5c(c4)NC(=O)C5)cc3s1)CCNC2,5.00 to 6.00
6,CC(C)NCCC(=O)Nc1sc2c(c1-c1nc3cc(-c4cn[nH]c4)ccc3s1)CCNC2,> 6.52
7,CC(C)N1CCc2c(sc(NC(=O)CCNCCc3cccnc3)c2-c2nc3ccccc3s2)C1,6.00 to 6.52
8,COc1ccc2sc(-c3c(NC(=O)CCNC(C)C)sc4c3CCNC4)nc2c1Cl,> 6.52
9,CC(C)NCCC(=O)Nc1sc2c(c1-c1nc3ccccc3s1)CC1CCC2N1 (configuration not stated),5.00 to 6.00
10,COCCNCCC(=O)Nc1sc2c(c1-c1nc3ccc(-c4ccc(OC)c(OC)c4)cc3s1)CCNC2,< 5.00
11,COCCNCCC(=O)Nc1sc2c(c1-c1nc3ccc(-c4cncc(C#N)c4)cc3s1)CCNC2,5.00 to 6.00
12,CC(C)NCCC(=O)N(C)c1sc2c(c1-c1nc3cc(-c4cnn(C)c4)ccc3s1)CCNC2,< 5.00
13,CC(C)NCCC(=O)Nc1sc2c(c1-c1nc3cc(C4CCCCC4)ccc3s1)CCNC2,< 5.00
14,Cc1cc(-c2ccc3sc(-c4c(NC(=O)CCNC(C)C)sc5c4CCNC5)nc3c2)n(C)n1,> 6.52
15,COCCNCCC(=O)Nc1sc2c(c1-c1nc3ccc(-c4ccccc4NS(C)(=O)=O)cc3s1)CCNC2,< 5.00
16,COCCNCCC(=O)Nc1sc2c(c1-c1nc3cc(-c4ccnc5[nH]ccc45)ccc3s1)CCNC2,5.00 to 6.00
17,COCCNCCC(=O)Nc1sc2c(c1-c1nc3cc(-c4ccccc4NC(C)=O)ccc3s1)CCNC2,< 5.00
18,CC(C)N1CCc2c(sc(NC(=O)CCN(C)C)c2-c2nc3ccccc3s2)C1,6.00 to 6.52
19,COCCNCCC(=O)Nc1sc2c(c1-c1nc3ccc(-c4cc5cccc(OC)c5[nH]4)cc3s1)CCNC2,5.00 to 6.00
20,COCCNCCC(=O)Nc1sc2c(c1-c1nc3ccc(-c4cnc(OC)nc4)cc3s1)CCNC2,5.00 to 6.00
21,COCCNCCC(=O)Nc1sc2c(c1-c1nc3ccc(-c4ccc(OC)nc4)cc3s1)CCNC2,5.00 to 6.00
22,COCCNCCC(=O)Nc1sc2c(c1-c1nc3ccc(-c4cncc(F)c4)cc3s1)CCNC2,6.00 to 6.52

# Results, then the compound that gave them:
row,pIC50,SMILES
1,< 5.00,COCCNCCC(=O)Nc1sc2c(c1-c1nc3ccc(-c4cc5ccccc5[nH]4)cc3s1)CCNC2
2,< 5.00,COCCNCCC(=O)Nc1sc2c(c1-c1nc3ccc(-c4ccccc4NC(C)=O)cc3s1)CCNC2
3,5.00 to 6.00,Cc1noc(C)c1-c1ccc2sc(-c3c(NC(=O)CCNC(C)C)sc4c3CCNC4)nc2c1
4,5.00 to 6.00,COCCNCCC(=O)Nc1sc2c(c1-c1nc3cc(-c4cc5cccc(OC)c5[nH]4)ccc3s1)CCNC2
5,> 6.52,CC(C)NCCC(=O)Nc1sc2c(c1-c1nc3cc(-c4cccnc4)ccc3s1)CCNC2
6,5.00 to 6.00,CCC(C)N(CCC(=O)Nc1sc2c(c1-c1nc3ccccc3s1)CCNC2)C(C)=O (configuration not stated)
7,6.00 to 6.52,CC(C)N1CCc2c(sc(NC(=O)CCN3CCN(C)CC3)c2-c2nc3ccccc3s2)C1
8,5.00 to 6.00,COCCNCCC(=O)Nc1sc2c(c1-c1nc3cc(-c4ccccc4Cl)ccc3s1)CCNC2
9,> 6.52,Cc1nn(C)cc1-c1ccc2sc(-c3c(NC(=O)CCNC(C)C)sc4c3CCNC4)nc2c1
10,5.00 to 6.00,COCCNCCC(=O)Nc1sc2c(c1-c1nc3ccc(-c4cccc5[nH]ncc45)cc3s1)CCNC2
11,6.00 to 6.52,COCCNCCC(=O)Nc1sc2c(c1-c1nc3ccc(-c4cccc(C(=O)N5CCN(C)CC5)c4)cc3s1)CCNC2
12,6.00 to 6.52,CCN(CC)CCNCCC(=O)Nc1sc2c(c1-c1nc3ccccc3s1)CCN(C(C)C)C2
13,5.00 to 6.00,COCCNCCC(=O)Nc1sc2c(c1-c1nc3cc(-c4ccccc4O)ccc3s1)CCNC2
14,> 6.52,CC(C)NCCC(=O)Nc1sc2c(c1-c1nc3cc(-c4ccc(O)cc4)ccc3s1)CCNC2
15,6.00 to 6.52,CC(C)NCCC(=O)Nc1sc2c(c1-c1nc3ccccc3o1)CCNC2
16,> 6.52,NCCC(=O)Nc1sc2c(c1-c1nc3ccccc3s1)CCNC2

row,pIC50,SMILES
1,5.00 to 6.00,COCCNCCC(=O)Nc1sc2c(c1-c1nc3cc(-c4ccc5c(c4)NC(=O)CO5)ccc3s1)CCNC2
2,6.00 to 6.52,CC(C)N1CCc2c(sc(NC(=O)CCN3CCOCC3)c2-c2nc3ccccc3s2)C1
3,5.00 to 6.00,COCCNCCC(=O)Nc1sc2c(c1-c1nc3cc(-c4cc(F)cnc4OC)ccc3s1)CCNC2
4,5.00 to 6.00,CC(C)NCCC(=O)Nc1sc2c(c1-c1nc3c(NC(=O)c4ccccc4)cccc3s1)CCNC2
5,< 5.00,COCCNCCC(=O)Nc1sc2c(c1-c1nc3ccc(-c4ccccc4Cl)cc3s1)CCNC2
6,6.00 to 6.52,CC(C)NCCC(=O)Nc1sc2c(c1-c1nc3cc(N4CCS(=O)(=O)CC4)ccc3s1)CCNC2
7,< 5.00,COCCNCCC(=O)Nc1sc2c(c1-c1nc3ccc(-c4ccnc5[nH]ccc45)cc3s1)CCNC2
8,> 6.52,CC(C)NCCC(=O)Nc1sc2c(c1-c1nc3cc(C(C)O)ccc3s1)CCNC2 (configuration not stated)
9,> 6.52,Cc1cn(-c2ccc3sc(-c4c(NC(=O)CCNC(C)C)sc5c4CCNC5)nc3c2)cn1
10,> 6.52,CC(C)NCCC(=O)Nc1sc2c(c1-c1nc3cc(C4=CCN(S(C)(=O)=O)CC4)ccc3s1)CCNC2
11,5.00 to 6.00,CC(C)N1CCc2c(sc(NC(=O)CCNCc3ccccc3)c2-c2nc3ccccc3s2)C1
12,6.00 to 6.52,COCCNCCC(=O)Nc1sc2c(c1-c1nc3cc(-c4cccc(C(=O)NCCN(C)C)c4)ccc3s1)CCNC2
13,> 6.52,COCCNCCC(=O)Nc1sc2c(c1-c1nc3c(N4CCCC4)cccc3s1)CCNC2
14,6.00 to 6.52,COCCNCCC(=O)Nc1sc2c(c1-c1nc3ccccc3s1)CCN(C(C)C)C2
15,< 5.00,COCCNCCC(=O)Nc1sc2c(c1-c1nc3cc(-c4cc5ccccc5[nH]4)ccc3s1)CCNC2
